Experimental data as given in ChEMBL document CHEMBL1153880, “Synthesis and adrenolytic activity of 1-(1H-indol-4-yloxy)-3-{[2-(2-methoxyphenoxy)ethyl]amino}propan-2-ol and its enantiomers. Part 1” (Eur J Med Chem, 2009).
Active and inactive are the calls of the source. The rule behind the calls is not given here.

Key:
[1] = system: Rattus norvegicus; test: Effect on heart rate in anaesthetized Wistar rat assessed as number of beats per minute at 1 mg/kg, iv after 1 min by electrocardiography; type: functional
[2] = system: Rattus norvegicus; test: Effect on electrocardiogram in anaesthetized Wistar rat assessed as change in QRS interval at 1 mg/kg, iv after 5 mins by electrocardiography; type: functional
[3] = system: Rattus norvegicus; test: Antiarrhythmic activity against adrenaline-induced arrhythmia in iv dosed anaesthetized Wistar rat assessed as inhibition of premature ventricular beats pretreated 60 mins prior to adrenaline challenge; type: functional; conditions: Heart
[4] = system: Rattus norvegicus; test: Effect on heart rate in anaesthetized Wistar rat assessed as number of beats per minute at 1 mg/kg, iv after 15 mins by electrocardiography; type: functional
[5] = Acute toxicity in iv dosed anaesthetized Wistar rat; type: organism-based; conditions: in vivo
[6] = system: Rattus norvegicus; test: Effect on electrocardiogram in anaesthetized Wistar rat assessed as change in P-Q-interval at 1 mg/kg, iv after 15 mins by electrocardiography; type: functional
[7] = system: Rattus norvegicus; test: Effect on electrocardiogram in anaesthetized Wistar rat assessed as change in P-Q-interval at 1 mg/kg, iv after 5 mins by electrocardiography; type: functional
[8] = system: Rattus norvegicus; test: Hypotensive activity in anaesthetized normotensive Wistar rat assessed as reduction in epinephrine-induced pressor response at 1 mg/kg, iv after 5 mins; type: functional, organism-based; design: dose 1 mg/kg
[9] = system: Rattus norvegicus; test: Antiarrhythmic activity against adrenaline-induced arrhythmia in po dosed anaesthetized Wistar rat assessed as inhibition of premature ventricular beats pretreated 60 mins prior to adrenaline challenge; type: functional; conditions: Heart
[10] = system: Rattus norvegicus; test: Effect on electrocardiogram in anaesthetized Wistar rat assessed as change in P-Q interval at 1 mg/kg, iv after 1 min by electrocardiography; type: functional
[11] = system: Rattus norvegicus; test: Effect on heart rate in anaesthetized Wistar rat assessed as number of beats per minute at 1 mg/kg, iv after 5 mins by electrocardiography; type: functional
[12] = system: Rattus norvegicus; test: Effect on electrocardiogram in anaesthetized Wistar rat assessed as change in Q-T interval at 1 mg/kg, iv after 15 mins by electrocardiography; type: functional
[13] = system: Rattus norvegicus; test: Effect on electrocardiogram in anaesthetized Wistar rat assessed as change in Q-T interval at 1 mg/kg, iv after 5 mins by electrocardiography; type: functional
[14] = biological target: T1, Adrenergic receptor alpha-2 (Rattus norvegicus, UniProt P22086+P19328+P22909); test: Displacement of [3H]clonidine from alpha2 adrenergic receptor in rat cerebral cortex by liquid scintillation method; type: tissue-based
T1 sequence (P22086 whole entry): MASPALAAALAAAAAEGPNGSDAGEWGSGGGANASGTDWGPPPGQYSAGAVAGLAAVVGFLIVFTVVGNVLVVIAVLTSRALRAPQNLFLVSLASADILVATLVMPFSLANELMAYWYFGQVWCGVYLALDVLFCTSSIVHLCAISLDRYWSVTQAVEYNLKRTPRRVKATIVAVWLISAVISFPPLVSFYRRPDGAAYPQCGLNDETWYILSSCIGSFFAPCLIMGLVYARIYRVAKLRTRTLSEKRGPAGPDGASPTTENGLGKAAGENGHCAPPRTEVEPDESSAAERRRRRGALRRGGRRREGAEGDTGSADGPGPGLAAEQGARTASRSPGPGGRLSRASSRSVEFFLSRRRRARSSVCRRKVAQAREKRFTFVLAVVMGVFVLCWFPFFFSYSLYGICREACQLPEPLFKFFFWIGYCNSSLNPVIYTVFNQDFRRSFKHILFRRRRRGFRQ
T1 sequence (P19328 whole entry): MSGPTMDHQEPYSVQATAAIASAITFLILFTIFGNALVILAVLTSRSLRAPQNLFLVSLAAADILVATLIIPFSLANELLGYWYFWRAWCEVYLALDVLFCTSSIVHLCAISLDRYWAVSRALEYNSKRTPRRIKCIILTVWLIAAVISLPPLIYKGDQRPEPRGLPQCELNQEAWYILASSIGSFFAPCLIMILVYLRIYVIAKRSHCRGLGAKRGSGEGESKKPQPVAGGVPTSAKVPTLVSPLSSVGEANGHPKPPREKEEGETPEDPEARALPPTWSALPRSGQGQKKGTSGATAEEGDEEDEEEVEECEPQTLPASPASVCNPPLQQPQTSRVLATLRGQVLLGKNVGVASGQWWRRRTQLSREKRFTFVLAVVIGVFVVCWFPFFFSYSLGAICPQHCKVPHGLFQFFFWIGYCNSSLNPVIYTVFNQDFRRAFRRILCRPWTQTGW
T1 sequence (P22909 whole entry): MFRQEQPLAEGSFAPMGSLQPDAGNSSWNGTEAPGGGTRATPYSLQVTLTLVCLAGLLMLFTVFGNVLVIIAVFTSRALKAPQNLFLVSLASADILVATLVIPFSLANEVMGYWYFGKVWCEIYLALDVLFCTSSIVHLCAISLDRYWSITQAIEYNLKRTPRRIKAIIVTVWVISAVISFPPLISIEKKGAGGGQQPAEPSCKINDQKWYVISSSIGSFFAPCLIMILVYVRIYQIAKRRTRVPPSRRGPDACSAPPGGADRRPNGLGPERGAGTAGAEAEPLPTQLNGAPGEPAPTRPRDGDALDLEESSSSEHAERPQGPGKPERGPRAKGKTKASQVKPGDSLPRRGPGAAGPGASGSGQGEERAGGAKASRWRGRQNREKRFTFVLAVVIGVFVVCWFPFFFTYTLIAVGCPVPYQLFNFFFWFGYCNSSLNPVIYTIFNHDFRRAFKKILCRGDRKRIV

[15] = system: Rattus norvegicus; test: Effect on electrocardiogram in anaesthetized Wistar rat assessed as change in Q-T interval at 1 mg/kg, iv after 1 min by electrocardiography; type: functional
[16] = system: Rattus norvegicus; test: Effect on electrocardiogram in anaesthetized Wistar rat assessed as change in QRS interval at 1 mg/kg, iv after 1 min by electrocardiography; type: functional
[17] = system: Rattus norvegicus; test: Hypotensive activity in anaesthetized normotensive Wistar rat assessed as reduction in methoxamine-induced pressor response at 1 mg/kg, iv after 5 mins; type: functional, organism-based; design: dose 1 mg/kg

For COc1ccccc1OCCNC[C@H](O)COc1cccc2[nH]ccc12, which Activity [1] is on record?
Its Activity is 297.2 min⁻¹.

And the Activity [2]?
The Activity was 24.3 ms.

And the ED50 [3]?
The ED50 was 0.059 mg/kg.

And the Activity [4]?
The Activity was 304.2 min⁻¹.

What about the LD50 [5] of the same compound?
The LD50 was 36.2 mg/kg.

And the Activity [6]?
The Activity was 48 ms.

What about the Activity [7] of the same compound?
The Activity was 49.7 ms.

And the Activity [8]?
The Activity was “Active”.

And the ED50 [9]?
Its ED50 is 0.61 mg/kg.

What about the Activity [10] of the same compound?
The Activity was 52.3 ms.

And the Activity [11]?
The Activity was 291.3 min⁻¹.

What about the Activity [12] of the same compound?
The Activity was 72 ms.

And the Activity [13]?
The Activity was 76.3 ms.

And the Ki [14]?
The Ki was 365.5 nM.

What about the Activity [15] of the same compound?
Its Activity is 72.3 ms.

What about the Activity [16] of the same compound?
The Activity was 24.3 ms.

And the Activity [17]?
The Activity was “Active”.

Which results are given for COc1ccccc1OCCNCC(O)COc1cccc2[nH]ccc12 (racemic)?
Activity [1]: 298.7 min⁻¹; Activity [2]: 24.9 ms; ED50 [3]: 0.34 mg/kg; Activity [4]: 287.3 min⁻¹; LD50 [5]: 20 mg/kg; Activity [6]: 46.2 ms; Activity [7]: 48.1 ms; Activity [8]: Active; ED50 [9]: 0.44 mg/kg; Activity [10]: 47.2 ms; Activity [11]: 294.5 min⁻¹; Activity [12]: 72.8 ms; Activity [13]: 69 ms; Ki [14]: 1.4 nM; Activity [15]: 69.2 ms; Activity [16]: 28.4 ms; Activity [17]: Active

For COc1ccccc1OCCNC[C@@H](O)COc1cccc2[nH]ccc12, which Activity [1] is on record?
The Activity was 307.8 min⁻¹.

What about the Activity [2] of the same compound?
Its Activity is 21.7 ms.

And the ED50 [3]?
The ED50 was 0.43 mg/kg.

And the Activity [4]?
The Activity was 298 min⁻¹.

What about the LD50 [5] of the same compound?
The LD50 was 20.4 mg/kg.

What about the Activity [6] of the same compound?
The Activity was 51.7 ms.

And the Activity [7]?
The Activity was 50.7 ms.

What about the Activity [8] of the same compound?
Its Activity is “Active”.

What about the ED50 [9] of the same compound?
Its ED50 is 1.28 mg/kg.

And the Activity [10]?
The Activity was 53.7 ms.

And the Activity [11]?
The Activity was 310.2 min⁻¹.

What about the Activity [12] of the same compound?
Its Activity is 62.8 ms.

And the Activity [13]?
The Activity was 66 ms.

What about the Ki [14] of the same compound?
Its Ki is 467.3 nM.

And the Activity [15]?
The Activity was 63 ms.

And the Activity [16]?
The Activity was 22.3 ms.

And the Activity [17]?
The Activity was “Active”.
